Assay results taken from PubChem BioAssay (NCI).
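Where inhibition never reached the appropriate level, the endpoint shown equals the highest concentration tested. Otherwise, values were interpolated linearly from a five-concentration, 48-hour dose response in 96-well plates. GI50 is the concentration that inhibits growth by half. TGI denotes the concentration required for complete inhibition of growth.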

What was measured:
Experiment in all cases: inhibition of tumour cell growth, NCI panel, 48 h
MALME-3M melanoma = tested on: MALME-3M melanoma
BT-549 breast = tested on: BT-549 breast
HS 578T breast = tested on: HS 578T breast
SK-MEL-5 melanoma = tested on: SK-MEL-5 melanoma
NCI-H23 lung = tested on: NCI-H23 lung
SNB-75 CNS = tested on: SNB-75 CNS
HT29 colon = tested on: HT29 colon
SN12C renal = tested on: SN12C renal
T-47D breast = tested on: T-47D breast
KM12 colon = tested on: KM12 colon

SMILES | GI50 (MALME-3M melanoma) [µM] | TGI (MALME-3M melanoma) [µM] | GI50 (BT-549 breast) [µM] | TGI (BT-549 breast) [µM] | GI50 (HS 578T breast) [µM] | TGI (HS 578T breast) [µM] | GI50 (SK-MEL-5 melanoma) [µM] | TGI (SK-MEL-5 melanoma) [µM] | GI50 (NCI-H23 lung) [µM] | TGI (NCI-H23 lung) [µM] | GI50 (SNB-75 CNS) [µM] | TGI (SNB-75 CNS) [µM] | GI50 (HT29 colon) [µM] | TGI (HT29 colon) [µM] | GI50 (SN12C renal) [µM] | TGI (SN12C renal) [µM] | GI50 (T-47D breast) [µM] | TGI (T-47D breast) [µM] | GI50 (KM12 colon) [µM] | TGI (KM12 colon) [µM]
C=CCn1c2ccccc2c2c3c(c4c5ccccc5n(CC=C)c4c21)C(=O)N(O)C3=O | 6.91 | 26.7 | 3.27 | 27.9 | 19.6 | > 100 | 1.79 | 4.1 | 3.03 | 22.2 | 3.55 | 24.2 | 2.02 | 4.9 | 3.36 | 13.2 | 2.03 | 33.2 | 3.2 | 18.4
C=C1c2nc3ccccc3n2C=C(c2cccc(Cl)c2)N1Cc1ccc(OC)cc1 | 0.717 | 72 | 1.7 | > 100 | 0.565 | > 100 | 0.276 | 3.55 | 0.77 | > 35.7 | 0.452 | > 100 | 7.15 | 53.2 | 1.26 | 50.3 | 2.55 | > 80.4 | 1.76 | 16.6
CN(C)c1ccc(/C=C(\C#N)c2cc3ccccc3[nH]2)cc1 | 2.32 | > 100 | 3.86 | > 100 | 1.63 | 9.49 | 1.36 | 32.8 | 3.21 | > 100 | 1.31 | 4.59 | 0.375 | 15.9 | 2.37 | > 100 | 0.585 | > 100 | 0.495 | > 100
Cc1ccc(N(C=O)c2c([N+](=O)[O-])cc([N+](=O)[O-])c3c2=[N+]([O-])CN=3)cc1 |  | 43.1 |  | 69 |  | > 100 |  | 30.1 |  | 68.1 |  | 95.2 |  | > 100 |  | > 100 |  | 39.7 |  | > 100
COc1ccc(OC)c(Nc2nc3nonc3nc2Nc2cccc(Br)c2)c1 | 0.471 | 5.52 | 0.537 | 6.97 | 0.807 | 8.14 | 0.297 | 1.57 | 0.41 | 5.49 | 1.25 | 8.12 | 1.13 | > 100 | 0.405 | 7.07 | 0.285 | 2.17 | 1.24 | > 100
O=C1C=C(NCCO)c2nccc3c2c1nc1ccccc13 | 17.4 | 49 | 36 | > 100 | 25.5 | > 100 | 16.3 | 35 | 19.1 | 67.3 | 49.7 | > 100 | 26.9 | > 100 | 18.2 | > 100 | 46.2 | > 100 | 21 | > 100
Cc1ccc(/C=N/NC(=O)c2ccccc2Oc2ccccc2)o1 | 36.8 | > 100 | 28.4 | > 100 | 46.9 | > 100 | 16.4 | 33.3 | 39.2 | > 100 | 12.8 | > 100 | 63.8 | > 100 | 32.9 | > 100 | 34.9 | > 100 | 40 | > 100
Cn1ncc(C#N)c1-c1ccc2c(c1)CN([C@H](CN)Cc1cccc(F)c1)C2=O | 1.33 | 11.3 | 0.477 | 12.1 | 0.322 | 11.4 | 12.1 | 24.9 | 20 | > 100 | 0.0925 | 3.09 | 3.25 | > 100 | 19.7 | > 100 | 0.0519 | 6.74 | 0.711 | > 100
Cc1ccc(C[As+](c2ccccc2)(c2ccccc2)c2ccccc2)cc1 | 0.297 | 11.6 | 0.392 | 8.26 | 2.19 | > 48.8 | 0.23 | 0.719 | 1.02 | 9.36 | 1.1 | 10.3 | 0.313 | 11.5 | 1.25 | 12.1 | 0.125 | 10.3 | 0.385 | 4.46
CNC(=O)ON(C(C)=O)C(=O)NC | > 78.6 | 129 | > 45.2 | 60.5 | 49.9 | 216 |  | 107 |  | 156 |  | 182 | 94.1 | 242 |  | 166 |  | 33.5 |  | 166
O=C(O)CCC(c1ccccc1)(c1ccccc1)c1ccccc1 |  | > 100 | 80.1 | > 100 |  | > 100 |  | > 100 |  | > 100 | > 100 | > 100 |  | > 100 |  | > 100 |  | > 60.3 |  | > 100
c1ccc(-c2[nH]ncc2-c2ccnc(-c3ccc(OCCN4CCOCC4)cc3)c2)nc1 | > 25 | > 25 | > 25 | > 25 | > 25 | > 25 | > 25 | > 25 | > 25 | > 25 | > 25 | > 25 | > 25 | > 25 | > 25 | > 25 | > 25 | > 25 | > 25 | > 25
NS(=O)(=O)c1ccc(N=Nc2ccc[nH]c2=O)cc1 |  | > 100 |  | > 100 |  | > 100 |  | > 100 |  | > 100 |  | > 100 |  | > 100 |  | > 100 |  | > 100 |  | > 100
C/C=C(\N=C=S)C(=O)OC1C(COC(C)=O)OC([C@]2(O)CC(=O)C(=N)C(C(=O)O)=C2O)C(O)C1OC1CC(OC)C(O)([C@@H](C)OC(=O)[C@@H](C)CC)C(C)O1 (stereo partly specified) |  | 22.8 |  | 16.5 |  | > 96.1 |  | 28.6 |  | 23.9 |  | 34.8 |  | 23.6 |  | 40 |  | 42.1 |  | 19.9
